Laboratory results published in PubChem BioAssay AID1259407 (Chemical Carcinogenesis Research Information System (CCRIS), 2018).
Calls of active or inactive are those of the source. The rule behind the calls is not given here.

Tested on: CCRIS mutagenicity, Ames/micronucleus/aberration tests
Experiment: CCRIS mutagenicity studies

For `Nc1ccc2cc3ccccc3cc2c1`, the mutagenic call (Test System: AMES SALMONELLA TYPHIMURIUM, Strain/Indicator: TA100, Metabolic Activation: RAT, LIVER, S-9, AROCLOR 1254 OR PHENOBARBITOL, Method: STANDARD PLATE) was “active; positive”, the mutagenic call (Test System: AMES SALMONELLA TYPHIMURIUM, Strain/Indicator: TA100, Metabolic Activation: RAT, LIVER, S-9, PHENOBARBITAL, Method: STANDARD PLATE) was “active; positive” and the mutagenic call (Test System: AMES SALMONELLA TYPHIMURIUM, Strain/Indicator: TA1535 (PSK1002), Metabolic Activation: RAT, LIVER, S-9, AROCLOR 1254, Method: PREINCUBATION) was “active; positive”. The mutagenic call (Test System: AMES SALMONELLA TYPHIMURIUM, Strain/Indicator: TA1535, Metabolic Activation: NONE, Method: SPIRAL ASSAY) was “inactive; negative”, the mutagenic call (Test System: AMES SALMONELLA TYPHIMURIUM, Strain/Indicator: TA1535, Metabolic Activation: RAT, LIVER, S-9, AROCLOR 1254 (2%), Method: STANDARD PLATE) was “inactive; negative” and the mutagenic call (Test System: AMES SALMONELLA TYPHIMURIUM, Strain/Indicator: TA1535, Metabolic Activation: RAT, LIVER, S-9, AROCLOR 1254, Method: SPIRAL ASSAY) was “active; positive”. For the same compound, the mutagenic call (Test System: AMES SALMONELLA TYPHIMURIUM, Strain/Indicator: TA1535, Metabolic Activation: RAT, LIVER, S-9, AROCLOR 1254, Method: STANDARD PLATE) was “active; positive”, the mutagenic call (Test System: AMES SALMONELLA TYPHIMURIUM, Strain/Indicator: TA1535, Metabolic Activation: RAT, LIVER, S-9, AROCLOR 1254 OR PHENOBARBITOL, Method: STANDARD PLATE) was “active; positive” and the mutagenic call (Test System: AMES SALMONELLA TYPHIMURIUM, Strain/Indicator: TA1535, Metabolic Activation: RAT, LIVER, S-9, PHENOBARBITAL, Method: STANDARD PLATE) was “active; positive”. The mutagenic call (Test System: AMES SALMONELLA TYPHIMURIUM, Strain/Indicator: TA1537, Metabolic Activation: NONE, Method: SPIRAL ASSAY) was “inactive; negative”, the mutagenic call (Test System: AMES SALMONELLA TYPHIMURIUM, Strain/Indicator: TA1537, Metabolic Activation: NONE, Method: STANDARD PLATE) was “inactive; negative” and the mutagenic call (Test System: AMES SALMONELLA TYPHIMURIUM, Strain/Indicator: TA1537, Metabolic Activation: RAT, LIVER, S-9, AROCLOR 1254 (2%), Method: STANDARD PLATE) was “active; positive”. The mutagenic call (Test System: AMES SALMONELLA TYPHIMURIUM, Strain/Indicator: TA1537, Metabolic Activation: RAT, LIVER, S-9, AROCLOR 1254, Method: SPIRAL ASSAY) was “active; positive”, the mutagenic call (Test System: AMES SALMONELLA TYPHIMURIUM, Strain/Indicator: TA1537, Metabolic Activation: RAT, LIVER, S-9, AROCLOR 1254, Method: STANDARD PLATE) was “active; positive” and the mutagenic call (Test System: AMES SALMONELLA TYPHIMURIUM, Strain/Indicator: TA1537, Metabolic Activation: RAT, LIVER, S-9, AROCLOR 1254 OR PHENOBARBITOL, Method: STANDARD PLATE) was “active; positive”. For the same compound, the mutagenic call (Test System: AMES SALMONELLA TYPHIMURIUM, Strain/Indicator: TA1538, Metabolic Activation: NONE, Method: STANDARD PLATE) was “inactive; negative”, the mutagenic call (Test System: AMES SALMONELLA TYPHIMURIUM, Strain/Indicator: TA1538, Metabolic Activation: RAT, LIVER, S-9, AROCLOR 1254, Method: STANDARD PLATE) was “active; positive” and the mutagenic call (Test System: AMES SALMONELLA TYPHIMURIUM, Strain/Indicator: TA1538, Metabolic Activation: RAT, LIVER, S-9, AROCLOR 1254 OR PHENOBARBITOL, Method: STANDARD PLATE) was “active; positive”. For the same compound, the mutagenic call (Test System: AMES SALMONELLA TYPHIMURIUM, Strain/Indicator: TA1538, Metabolic Activation: RAT, LIVER, S-9, PHENOBARBITAL, Method: STANDARD PLATE) was “active; positive”, the mutagenic call (Test System: AMES SALMONELLA TYPHIMURIUM, Strain/Indicator: YG1012, Metabolic Activation: RAT, LIVER, S-9, PHENOBARBITAL AND 5,6-BENZOFLAVONE, Method: PREINCUBATION) was “active; positive” and the mutagenic call (Test System: AMES SALMONELLA TYPHIMURIUM, Strain/Indicator: YG1019, Metabolic Activation: RAT, LIVER, S-9, PHENOBARBITAL AND 5,6-BENZOFLAVONE, Method: PREINCUBATION) was “active; positive”. The mutagenic call (Test System: AMES SALMONELLA TYPHIMURIUM, Strain/Indicator: YG1020, Metabolic Activation: RAT, LIVER, S-9, PHENOBARBITAL AND 5,6-BENZOFLAVONE, Method: PREINCUBATION) was “active; positive”, the mutagenic call (Test System: AMES SALMONELLA TYPHIMURIUM, Strain/Indicator: YG1024, Metabolic Activation: RAT, LIVER, S-9, PHENOBARBITAL AND 5,6-BENZOFLAVONE, Method: PREINCUBATION) was “active; positive” and the mutagenic call (Test System: AMES SALMONELLA TYPHIMURIUM, Strain/Indicator: YG1025, Metabolic Activation: RAT, LIVER, S-9, PHENOBARBITAL AND 5,6-BENZOFLAVONE, Method: PREINCUBATION) was “active; positive”. The mutagenic call (Test System: AMES SALMONELLA TYPHIMURIUM, Strain/Indicator: YG1029, Metabolic Activation: RAT, LIVER, S-9, PHENOBARBITAL AND 5,6-BENZOFLAVONE, Method: PREINCUBATION) was “active; positive”, the mutagenic call (Test System: Ames Salmonella typhimurium, Strain/Indicator: YG7108pin3ERb5, Metabolic Activation: None, Method: Standard plate) was “active; positive” and the mutagenic call (Test System: CHINESE HAMSTER OVARY, Strain/Indicator: CHO-K1-BH4 (HGPRT), Metabolic Activation: RAT, LIVER, S-9, AROCLOR, Method: SUSPENSION/PLATE) was “active; positive”. The mutagenic call (Test System: E. COLI, Strain/Indicator: WP2 UVRA, Metabolic Activation: NONE, Method: STANDARD PLATE) was “inactive; negative”, the mutagenic call (Test System: MOUSE LYMPHOMA, Strain/Indicator: L5178Y (TK+/TK-), Metabolic Activation: NONE, Method: SUSPENSION/PLATE) was “inactive; negative” and the mutagenic call (Test System: MOUSE LYMPHOMA, Strain/Indicator: L5178Y (TK+/TK-), Metabolic Activation: RAT, LIVER, S-9, AROCLOR 1254, Method: SUSPENSION/PLATE) was “active; positive”.
